Measurements as given in ChEMBL document CHEMBL4414617, “Identification of 2-Imidazopyridine and 2-Aminopyridone Purinones as Potent Pan-Janus Kinase (JAK) Inhibitors for the Inhaled Treatment of Respiratory Diseases” (J Med Chem, 2019).

Experiments:
[1] = target: Tyrosine-protein kinase JAK1 (Homo sapiens, UniProt P23458)
Description: Inhibition of recombinant human GST-tagged JAK1 (866 to 1154 residues) expressed in baculovirus expression system using PolyGT-Biotin as substrate measured after 3 to 20 hrs by HTRF assay

CHO-K1 = assay: cells; type: ADME, cell-based; settings: Cricetulus griseus, CHO-K1, 24 h
Description: Cytotoxicity against CHOK1 cells assessed as reduction in ATP levels incubated for 24 hrs by ATPlite luminescence assay

in vivo [2] = settings: Wistar, rat, inhaled or intranasal
in vitro [3] = settings: rat, plasma
Description: Protein binding in rat plasma by LC-MS/MS-based equilibrium dialysis method

in vitro [4] = settings: human, plasma
Description: Protein binding in human plasma by LC-MS/MS-based equilibrium dialysis method

in vitro [5] = settings: human, microsomes
Description: Drug metabolism in human liver microsomes at 5 uM incubated for 30 mins by UPLC-MS/MS analysis

in vivo [6] = settings: Sprague-Dawley, rat, inhaled or intranasal, 3 mg/kg
NaV1.5 = NaV1.5 (Homo sapiens, UniProt Q14524); assay: in vitro
Chain of NaV1.5 (Q14524 whole entry): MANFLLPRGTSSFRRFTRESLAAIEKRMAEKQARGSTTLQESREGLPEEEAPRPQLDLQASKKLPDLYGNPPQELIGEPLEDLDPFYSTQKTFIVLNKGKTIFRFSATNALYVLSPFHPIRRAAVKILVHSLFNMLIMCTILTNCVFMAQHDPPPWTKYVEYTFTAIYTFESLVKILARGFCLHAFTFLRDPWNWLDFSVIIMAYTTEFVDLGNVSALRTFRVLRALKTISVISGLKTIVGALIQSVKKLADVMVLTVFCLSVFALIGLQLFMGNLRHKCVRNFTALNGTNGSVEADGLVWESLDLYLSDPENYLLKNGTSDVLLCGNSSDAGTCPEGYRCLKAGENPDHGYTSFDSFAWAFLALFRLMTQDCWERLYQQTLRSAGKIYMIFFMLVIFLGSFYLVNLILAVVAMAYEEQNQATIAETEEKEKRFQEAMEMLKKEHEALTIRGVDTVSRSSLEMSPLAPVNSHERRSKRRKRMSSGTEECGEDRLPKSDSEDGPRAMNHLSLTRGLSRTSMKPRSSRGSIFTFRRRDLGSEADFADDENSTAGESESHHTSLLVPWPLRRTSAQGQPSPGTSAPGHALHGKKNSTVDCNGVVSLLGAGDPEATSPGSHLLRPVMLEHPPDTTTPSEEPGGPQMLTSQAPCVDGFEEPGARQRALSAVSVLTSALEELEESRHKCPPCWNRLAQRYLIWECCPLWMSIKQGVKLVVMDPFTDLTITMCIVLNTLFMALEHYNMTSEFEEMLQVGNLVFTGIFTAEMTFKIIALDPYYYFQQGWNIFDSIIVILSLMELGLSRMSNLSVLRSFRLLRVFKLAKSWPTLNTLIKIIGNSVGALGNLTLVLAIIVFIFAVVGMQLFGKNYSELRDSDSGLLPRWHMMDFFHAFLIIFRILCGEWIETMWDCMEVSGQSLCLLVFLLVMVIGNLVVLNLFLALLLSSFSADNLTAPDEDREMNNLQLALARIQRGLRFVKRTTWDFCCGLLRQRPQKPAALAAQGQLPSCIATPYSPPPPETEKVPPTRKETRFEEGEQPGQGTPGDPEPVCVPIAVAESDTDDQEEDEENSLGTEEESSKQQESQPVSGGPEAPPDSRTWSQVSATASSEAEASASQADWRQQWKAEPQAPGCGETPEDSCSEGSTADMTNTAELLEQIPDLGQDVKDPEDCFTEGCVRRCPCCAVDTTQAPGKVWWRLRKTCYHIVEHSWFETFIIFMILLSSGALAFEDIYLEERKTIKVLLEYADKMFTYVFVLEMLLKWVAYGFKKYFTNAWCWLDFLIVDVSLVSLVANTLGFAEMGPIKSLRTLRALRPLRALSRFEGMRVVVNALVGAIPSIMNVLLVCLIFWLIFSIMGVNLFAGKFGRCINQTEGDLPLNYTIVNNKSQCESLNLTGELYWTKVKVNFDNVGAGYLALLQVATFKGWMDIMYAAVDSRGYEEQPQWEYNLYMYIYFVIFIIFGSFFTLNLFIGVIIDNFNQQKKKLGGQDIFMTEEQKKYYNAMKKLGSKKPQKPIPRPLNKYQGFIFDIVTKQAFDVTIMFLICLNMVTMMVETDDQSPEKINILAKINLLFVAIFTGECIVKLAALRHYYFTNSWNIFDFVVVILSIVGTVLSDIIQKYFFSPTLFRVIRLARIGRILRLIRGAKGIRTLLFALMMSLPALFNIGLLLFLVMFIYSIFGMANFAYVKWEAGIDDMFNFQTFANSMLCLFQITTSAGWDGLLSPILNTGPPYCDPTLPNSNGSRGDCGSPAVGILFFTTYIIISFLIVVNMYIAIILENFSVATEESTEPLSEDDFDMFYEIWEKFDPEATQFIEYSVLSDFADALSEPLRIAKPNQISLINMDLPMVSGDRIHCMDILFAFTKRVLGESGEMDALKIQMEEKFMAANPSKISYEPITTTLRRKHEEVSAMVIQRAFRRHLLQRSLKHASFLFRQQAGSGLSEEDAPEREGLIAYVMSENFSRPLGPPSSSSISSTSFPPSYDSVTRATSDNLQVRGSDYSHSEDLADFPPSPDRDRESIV
Description: Inhibition of NaV1.5 (unknown origin) at 10 uM relative to control

in vitro [7] = settings: rat, microsomes
Description: Drug metabolism in rat liver microsomes at 5 uM incubated for 30 mins by UPLC-MS/MS analysis

physchem = settings: octanol/water
Description: Lipophilicity, log D of compound

hERG (KCNH2) = hERG (KCNH2) (Homo sapiens, UniProt Q12809); assay: in vitro
Chain of hERG (KCNH2) (Q12809 whole entry): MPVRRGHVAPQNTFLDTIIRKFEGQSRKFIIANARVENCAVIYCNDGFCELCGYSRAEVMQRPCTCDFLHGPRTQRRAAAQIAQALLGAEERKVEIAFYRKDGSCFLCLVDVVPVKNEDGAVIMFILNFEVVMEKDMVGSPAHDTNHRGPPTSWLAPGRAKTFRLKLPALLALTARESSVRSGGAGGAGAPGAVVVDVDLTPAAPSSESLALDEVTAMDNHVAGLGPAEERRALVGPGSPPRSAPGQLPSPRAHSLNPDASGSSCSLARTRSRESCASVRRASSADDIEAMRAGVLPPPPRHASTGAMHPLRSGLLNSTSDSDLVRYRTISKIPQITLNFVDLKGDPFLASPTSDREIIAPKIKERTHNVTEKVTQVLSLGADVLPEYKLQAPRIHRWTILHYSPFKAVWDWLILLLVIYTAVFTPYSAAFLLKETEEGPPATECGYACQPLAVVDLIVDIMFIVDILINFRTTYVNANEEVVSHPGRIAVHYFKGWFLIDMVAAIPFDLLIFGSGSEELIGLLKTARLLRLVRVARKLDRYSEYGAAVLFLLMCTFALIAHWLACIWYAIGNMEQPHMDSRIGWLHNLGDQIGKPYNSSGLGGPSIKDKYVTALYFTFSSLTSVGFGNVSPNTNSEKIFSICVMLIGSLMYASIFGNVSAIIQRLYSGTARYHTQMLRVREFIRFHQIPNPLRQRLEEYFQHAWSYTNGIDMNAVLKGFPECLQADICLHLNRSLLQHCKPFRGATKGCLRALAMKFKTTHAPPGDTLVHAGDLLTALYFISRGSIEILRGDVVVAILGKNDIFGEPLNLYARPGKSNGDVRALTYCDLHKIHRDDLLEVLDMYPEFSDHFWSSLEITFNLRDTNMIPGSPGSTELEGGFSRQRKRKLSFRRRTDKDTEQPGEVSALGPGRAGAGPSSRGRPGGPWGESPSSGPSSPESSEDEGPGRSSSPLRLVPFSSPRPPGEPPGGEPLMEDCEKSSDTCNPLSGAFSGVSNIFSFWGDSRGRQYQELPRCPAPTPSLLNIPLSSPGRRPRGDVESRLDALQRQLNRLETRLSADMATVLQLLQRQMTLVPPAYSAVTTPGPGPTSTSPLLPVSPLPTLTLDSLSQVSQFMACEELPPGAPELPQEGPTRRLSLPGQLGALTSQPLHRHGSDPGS
Description: Inhibition of human ERG at 10 uM relative to control

in vivo [8] = settings: Wistar, rat, po, 30 mg/kg
[9] = rat, in vivo, inhaled or intranasal, 3 mg/kg, 24 h
Description: Free maximum concentration of drug in Sprague-Dawley rat at 3 mg/kg administered intratracheally as nanosuspension measured up to 24 hrs by LC-MS/MS analysis

[10] = buffer, pH 1.2
Description: Chemical stability of compound at pH 1.2 to 9

[11] = buffer
Description: Solubility of the compound in PBS with 0.2% Tween80 using nanosuspension formulation

in vivo [12] = settings: Wistar, rat, po, 30 mg/kg; remark: listed apart in the source
in vivo [13] = settings: Wistar, rat, inhaled or intranasal; remark: listed apart in the source
Description: Half life in Wistar rat at 0.41 mg/kg administered intratracheally as nanosuspension measured up to 24 hrs by LC-MS/MS analysis

[14] = buffer; remark: listed apart in the source
Description: Solubility of the compound in sterile water with 0.2% Tween80 using nanosuspension formulation

in vitro [15] = settings: PAMPA
Description: Apparent permeability of compound at 20 uM measured after 5 hrs by PAMPA

Cav1.2 = Cav1.2 (Homo sapiens, UniProt Q13936); assay: in vitro
Description: Inhibition of Cav1.2 (unknown origin) at 10 uM relative to control

Chain of Tyrosine-protein kinase JAK1 (P23458 whole entry): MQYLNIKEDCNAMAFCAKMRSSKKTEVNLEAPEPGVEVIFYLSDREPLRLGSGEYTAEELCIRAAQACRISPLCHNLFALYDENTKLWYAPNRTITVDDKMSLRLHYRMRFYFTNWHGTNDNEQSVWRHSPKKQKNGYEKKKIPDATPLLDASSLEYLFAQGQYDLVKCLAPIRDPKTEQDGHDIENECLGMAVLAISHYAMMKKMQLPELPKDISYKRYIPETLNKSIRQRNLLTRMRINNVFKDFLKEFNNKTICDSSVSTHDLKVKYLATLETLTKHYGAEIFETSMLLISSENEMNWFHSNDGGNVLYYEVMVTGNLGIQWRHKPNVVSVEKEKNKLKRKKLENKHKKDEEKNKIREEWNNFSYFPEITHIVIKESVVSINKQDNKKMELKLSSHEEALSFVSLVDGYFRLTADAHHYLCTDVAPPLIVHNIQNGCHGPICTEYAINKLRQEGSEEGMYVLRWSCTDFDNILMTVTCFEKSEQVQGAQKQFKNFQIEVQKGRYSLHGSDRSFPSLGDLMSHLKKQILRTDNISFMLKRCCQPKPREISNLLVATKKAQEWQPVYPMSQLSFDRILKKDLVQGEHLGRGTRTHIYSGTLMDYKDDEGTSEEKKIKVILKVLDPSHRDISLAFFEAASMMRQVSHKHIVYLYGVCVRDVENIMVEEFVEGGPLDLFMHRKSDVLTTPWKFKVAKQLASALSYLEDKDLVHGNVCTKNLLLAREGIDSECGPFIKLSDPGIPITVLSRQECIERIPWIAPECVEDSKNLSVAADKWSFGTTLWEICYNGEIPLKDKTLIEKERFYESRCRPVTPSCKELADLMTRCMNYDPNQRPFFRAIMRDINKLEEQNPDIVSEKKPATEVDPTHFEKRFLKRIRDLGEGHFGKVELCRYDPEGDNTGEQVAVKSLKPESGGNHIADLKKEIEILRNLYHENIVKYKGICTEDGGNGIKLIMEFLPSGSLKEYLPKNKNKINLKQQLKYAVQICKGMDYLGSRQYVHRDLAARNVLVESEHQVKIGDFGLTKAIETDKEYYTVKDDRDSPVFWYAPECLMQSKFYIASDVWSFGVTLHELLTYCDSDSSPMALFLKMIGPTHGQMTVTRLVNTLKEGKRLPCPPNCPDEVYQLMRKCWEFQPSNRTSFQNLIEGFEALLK

O=c1[nH]c2cnc(-c3cnc4ccc(F)cn34)nc2n1[C@@H]1CCOc2c(F)cccc21
IC50 [1]: 0.024 µM | IC50 (CHO-K1): 4 µM

C[C@H](c1ccc(F)cn1)n1c(=O)[nH]c2cnc(Nc3ccc[nH]c3=O)nc21
IC50 (CHO-K1): > 100 µM

N#CC[C@H]1CC[C@H](n2c(=O)[nH]c3cnc(Nc4ccc[nH]c4=O)nc32)CC1
AUC at 24 h (in vivo [2]): 118 ng·h/mL | fraction unbound (in vitro [3]): 0.21 | fraction unbound (in vitro [4]): 0.17 | metabolised at 0.5 h, 5 µM (in vitro [5]): 21% | AUC at 24 h (in vivo [6]): 406 ng·h/mL | inhibition at 10 µM (NaV1.5): < 15% | metabolised at 0.5 h, 5 µM (in vitro [7]): 17% | logD (physchem): 2.1 | inhibition at 10 µM (hERG (KCNH2)): < 15% | Cmax at 24 h (in vivo [8]): 7 ng/mL | fCmax [9]: 57 ng/mL | Stability [10]: Stable | solubility [11]: Soluble | AUC(0-inf) at 24 h (in vivo [12]): 32 ng·h/mL | half-life at 24 h (in vivo [13]): 16.3 h | solubility [14]: Soluble | Papp at 5 h, 20 µM (in vitro [15]): 0.61 ×10⁻⁶ cm/s | inhibition at 10 µM (Cav1.2): < 15% | IC50 (CHO-K1): > 100 µM

O=c1[nH]c2cnc(-c3cnc4ccc(F)cn34)nc2n1[C@H]1CC[C@H](O)CC1
IC50 (CHO-K1): 100 µM

C[C@H](c1ncc(F)cn1)n1c(=O)[nH]c2cnc(-c3cnc4ccc(F)cn34)nc21
IC50 [1]: 0.0035 µM | IC50 (CHO-K1): 4.3 µM

O=c1[nH]cc(Cl)cc1Nc1ncc2[nH]c(=O)n([C@@H]3CCOc4c(F)cccc43)c2n1
IC50 (CHO-K1): 36 µM

C[C@H](c1ccc(F)cn1)n1c(=O)[nH]c2cnc(Nc3cc(F)c[nH]c3=O)nc21
IC50 (CHO-K1): > 100 µM

O=c1[nH]cc(F)cc1Nc1ncc2[nH]c(=O)n([C@@H]3CCOc4c(F)cccc43)c2n1
IC50 (CHO-K1): > 100 µM

Cc1c[nH]c(=O)c(Nc2ncc3[nH]c(=O)n([C@@H]4CCOc5c(F)cccc54)c3n2)c1
IC50 (CHO-K1): 51 µM

C[C@]1(O)CC[C@H](n2c(=O)[nH]c3cnc(-c4cnc5ccc(F)cn45)nc32)CC1
IC50 [1]: 0.079 µM | IC50 (CHO-K1): 16 µM
